Earlier results as cited in patent US9775789B2, “Topical liposome compositions containing phenolic anti-inflammatory agents and their methods of preparation” (D& J ROSEE INC., priority 2012, dated 2017).

How the values were obtained:
[1] = tested on: tumor; settings: topical application and UV radiation versus controls
[2] = tested on: cultured squamous carcinoma cells; settings: in vitro
[3] = tested on: atopic dermatitis (AD) type skin lesions; settings: daily topical application after allergen extract; versus vehicle
[4] = tested on: MRSA; settings: time-kill study
[5] = tested on: keratinocytes; settings: 6-week application under occlusion
[6] = tested on: TNF-α and INF-γ; settings: versus control; SEB intraperitoneally
[7] = tested on: MRSA; settings: all 53 MRSA clinical isolates
[8] = tested on: keratinocytes; settings: applied during 48 hours, then simulated solar radiation (2 MED); skin biopsy
[9] = tested on: T. rubrum
[10] = tested on: nuclear factor kappa beta (NF-κB) in normal human epidermal keratinocytes (NHEK); settings: pretreatment of keratinocytes before UVB exposure
[11] = tested on: human skin
[12] = in vitro; superoxide anion and hydroxyl radicals
[13] = tested on: cultured keratinocytes; settings: in vitro

## O=C(O[C@@H]1Cc2c(O)cc(O)cc2O[C@@H]1c1cc(O)c(O)c(O)c1)c1cc(O)c(O)c(O)c1 [EGCG, epigallocatechin gallate]
[1]
  tumor incidence and size: significant reductions
[2]
  action against cultured squamous carcinoma cells (apoptosis): inhibitory action
[3]
  clinical signs (erythema, edema, scaling and excoriation): significantly lessened
  ear swelling: significantly reduced
[4]; one isolate
  bactericidal concentration: 6 times the MIC
  bacteriostatic concentration: 1-2 times the MIC
[4]; equivalent of 6 times the MIC
  bactericidal concentration, aqueous solution: ~0.04%
[5]
  epidermal thickness: significant increase
[5]; versus vehicle-treated samples
  proliferation of keratinocytes: significantly stimulated
[6]
  serum levels of TNF-α and INF-γ: significantly reduced
[7]
  minimal inhibitory concentration (MIC): 32 to 128 µg/mL
[8]
  greater increase in keratinocyte cell numbers versus vehicle-treated: 4 fold
[9]
  susceptibility of T. rubrum compared with reference antifungals: more susceptible than to flucytosine and similar to fluconazole
[9]; 11 clinical isolates of T. rubrum
  MIC: 1-16 μg per mL
[10]
  UVB-induced activation of NFκB: significant dose- and time-dependent inhibition
[11]; EGCG pretreatment
  UV-induced infiltration of inflammatory leukocytes into the skin: inhibited
[11]; topical application before a single UV exposure (4× MED), punch biopsies
  UV-induced production of hydrogen peroxide, nitric oxide and lipid peroxide in both epidermis and dermis: markedly decreased
[12]
  ROS scavenging activity: superior to other tea catechins
[13]
  effect on cultured keratinocytes: dose-dependent stimulatory effect
